In patent US10716756B2, “Compositions and methods for reducing reperfusion injury” (VIVACELLE BIO, INC., priority 2016, dated 2020):
Where “and” joins values, the source holds several entries; their conditions need not be identical. Equal entries are not always repeated.

Columns and labels:
human neutrophils = conditions: Simpkins et al. 1985; cited from earlier work
[1] = Battion et al. 1968; cited from earlier work
[2] = Nitric oxide uptake/content of soybean oil emulsion by mass spectrometry
Description: Some samples (1 ml each) were left open to air in 2.0 ml tubes for 30 minutes prior to dissolved gas analysis. In other experiments the emulsion was placed into a 15 ml tube. The headspace was filled with the gas under study and the gas was allowed to enter the emulsion by equilibration over 60 minutes with the tube on its side to increase the gas emulsion interaction. 50 μL drawn from each of these fluids were injected into a Sievers purge vessel at 37° C. containing 36 ml of a mildly acidic solution consisting of 32 ml of 1M HCL and 4 ml of 0.5M ascorbic acid. […] Signals generated at m/z=32 upon injection of RL and lipid emulsion samples were integrated using Peakfit and compared to those obtained with distilled water.
In another set of experiments we measured the uptake of nitric oxide by a commercially available 20% soybean oil emulsion, Liposyn III 20%. This emulsion contains 20% soybean oil, 1.2% egg phospholipids and 2.5% glycerin in water. Using NaOH pH was adjusted to 8.3. […] 100 ppm nitric oxide in helium was used to purge the hesdspace for two minutes taking care not to bubble the fluid. For sixty minutes the sample was allowed to reach gas-liquid equilibrium with the tube placed on its side to maximize gas-emulsion contact.
The uptake of NO and O2 by a commercial 20% soybean oil emulsion, Liposyn, was measured using mass spectrometry. […] To approximate field conditions, no warming or respiratory support was provided. Next, 55% of blood volume was removed within 2 minutes. […] The time of clinical death was defined as the cessation of respiration. […] In 5 mice a volume of Ringer's lactate equal to the volume of blood removed was administered via the internal jugular vein over 2 minutes immediately after the loss of chest wall movement. […] In 6 mice a volume of Ringer's lactate equal to the volume of blood removed was administered via the carotid artery over 2 minutes. […] In the next set of experiments, infusing Ringers' lactate was delayed for 3 minutes. […] A volume of emulsion equal to the volume of blood that had been removed was infused.

[3] = 1 atm; from The Engineering Toolbox; cited from earlier work
[4] = anesthetic; cited from earlier work
[5] = published value; cited from earlier work

Q: With `C=CCN1CC[C@]23c4c5ccc(O)c4O[C@H]2C(=O)CC[C@]3(O)[C@H]1C5` [(+) naloxone] as the compound, how does the “concentration range that produces anti-inflammatory effect” value (human neutrophils) read?
A: 10^−5-10^−4 M

Q: With `O=O` [Oxygen] as the compound, how does the “solubility in lipid relative to water” value [1] read?
A: 4.41 times

Q: What does the source list for `O` [Water]?
A: NO Content, single sample ([2]; 100 ppm nitric oxide in helium headspace, 60 min equilibration): 2.29 mol/L and 1.52 mol/L and 1.63 mol/L and 1.72 mol/L and 1.69 mol/L; NO Content, Mean ([2]; 100 ppm nitric oxide in helium headspace, 60 min equilibration, 5 samples): 1.77 mol/L; NO content ([2]; mass spectrometry, Example 7): 2.12×10^−3±0.17 moles/L; Oxygen Content at 25° C. and Sea level Pressure [3]: 8.3 mg/L

Q: For `[Xe]` [Xenon], which “minimum alveolar concentration (MAC)” value [4] is on record?
A: 71%

Q: With hemoglobin as the compound, how does the oxygen release time [5] read?
A: 17.5 ms
